# From US7704723B2, “Isolation and characterization of novel clostridial species” (The Board of Regents For Oklahoma State University, priority 2006, dated 2010)
# Counter-ions that a name gives are not always drawn.
# What was measured:
# [1] = system: strain P11; test: Trace metals elimination (0x) and addition (10x) in CO medium; assay type: cell-based, Clostridium ragsdalei; settings: for Acetate production on elimination of the metal / CO metabolism on elimination of the metal / Increase in solvent to acid ratio on elimination of the metal: 0x metal in COM; for CO metabolism at increased level of the metal: 10x metal in COM, especially after a 48 hour feeding
# Method: Bacterial Strain and Cultivation Media. Clostridial strain P11 was used throughout the study. […] The growth temperature was 37° C. […] Analytical methods. […] Milton Roy) in aluminum seal tubes (Balch & Wolfe, 1976). […] Hydrogen ion concentration was measured by electrode. Trace metals. […] Triplicate tubes of unamended (1×) and amended (0× and 10×) media were inoculated with strain P11 where each of these individual trace metals were added to or eliminated from the COM at 10× and 0× the original metal concentration. The cultures were fed every 48 hours with CO. This was also completed in duplicate in 160 mL serum bottles to simulate small scale batch conditions. Stock solutions were prepared for each of the above metals and added during the media preparation before boiling and degassing. […] In order to adapt cells to the higher concentrations of metals, at least 2 transfers were made for each set-up. This experiment was performed in triplicate and growth was measured over 7 days after which pH and ethanol concentration analyses were completed.
# [2] = system: strain P11; test: microbe, parasite or virus in culture
# Method: (§1) Bacterial Strain and Cultivation Media. Clostridial strain P11 was used throughout the study. Carbon monoxide medium (COM) was used to cultivate and maintain the culture. The growth temperature was 37° C. COM is an undefined buffered medium initially pressurized to 10 psi (70 kPa) with N2/CO2 and then autoclaved for 15 minutes at 121° C. The medium contained per liter of distilled water: 25 ml mineral solution (Table 1), 10 ml trace metals solution (Table 2, 10 ml vitamin solution (Table 3), 1.0 g of yeast extract, 10 g of MES (2-[N-morpholino]ethanesulfonic acid), 0.001 g resazurin, 4.0 g cysteine.HCl, and 4.0 Na2S.9H2O; the initial pH of this medium was 6.1-6.3. The medium was prepared using strict anaerobic technique (Balch & Wolfe, 1976). Carbon monoxide was the sole substrate provided at 210 kPa (30 psi). Unless otherwise noted all growth experiments were conducted under a pressure of 30 psi with CO as the sole or primary substrate and were incubated horizontally to maximize gas diffusion into the medium. Standard inoculum size was about 2% (v/v) transferred from a stock culture that was growing in mid to late exponential phase, unless otherwise noted.
# (§2) Analytical methods. Growth was measured spectrophotometrically at 600 nm (Spectronic 20D; Milton Roy) in aluminum seal tubes (Balch & Wolfe, 1976). Acetate and ethanol were measured simultaneously by a gas chromatograph (GC) equipped with a flame ionization detector (FID) on a Varian 3400 equipped with a 2 m steel column packed with an 80/120 Carbopak B-DA/4% carbowax resin 20M (Supelco, Bellfonte, Pa.). The column, injector, and detector temperature were 155, 200, and 200° C. respectively. Helium was the carrier gas and the flow rate was set at 30 ml min^−1. Hydrogen ion concentration was measured by electrode.
# Ethanol tolerance. The effect of ethanol on CO metabolism and solvent production was investigated with strain P11. The initial maximum concentration at which strain P11 could survive was determined during the course of these studies. […] Liquid samples (1.0 mL) were extracted once the cells remained at stationary phase and stored frozen (−20° C.) until analyzed by GC and HPLC. After the maximum ethanol concentration for cell survival was determined semi-continuous batch culture experiments were conducted using 500 mL serum bottles containing between 100-200 mL of COM containing different concentrations of ethanol (20, 30, 40, and 50 g/L) to adapt strain P11 to high solvent conditions. The amended COM with ethanol was prepared by adding filter sterilized ethanol to pre-sterilized Balch tubes, and then purging with N/CO2 to remove oxygen. After the media was sterilized, the ethanol was then added to the appropriate concentrations. These bottles were inoculated with the P11 cells from the semi-continuous batch cultures that were already established above. Growth and pH were measured periodically. A portion of the medium extracted for those measurements was taken for analyses of ethanol and acetate concentrations.
# [3] = system: Clostridium ragsdalei strain P11; test: Growth of strain P11 on organic and gaseous substrates as sole carbon and energy sources; assay type: cell-based; settings: for Substrate utilization, C. ragsdalei: strain P11, growth on substrate as sole carbon and energy source, final OD600
# Method: (§3) Except for the deletion of NaHCO3 and an initial pH 6.3, growth on organic and gaseous substrates was performed as previously described (Tanner et. al., 1993). Resazurin (1 mg/L) was used as the redox indicator. Purified agar was added to the medium at a concentration of 2% for colony morphology description (Table 5). Heat labile substrates were filter sterilized (not autoclaved) and added from sterile stock solutions to a final concentration of 5 g/L before inoculation. The optimum temperature and pH (initial pH) was determined in medium containing fructose as the substrate. For determination of the optimum pH, media was buffered with HOMOPIPES (homopiperazine-N,N′-bis-2-[ethanesulfonic acid] (Research Organics, Cleveland, Ohio), MES (2-[N-morpholino]ethanesulfonic acid), or TES (N-tris [hydroxymethyl]methyl-2-aminoethanesulfonic acid) at (1.0 g/L). A 0.1 ml (˜2%) inoculum of fructose-grown cells was used to initiate growth. All media components used in these experiments were obtained from Sigma unless otherwise noted (Sigma Chemical Co., St. Louis, Mo.).
# (§4) Analytical methods. […] For the substrate malate, utilization was analyzed by HPLC (“high-performance liquid chromatography”) equipped with a UV detector set at 214 nm using a Alltech, Prevail Organic Acid column (4.6×150 mm, 5 μm; Alltech, Deerfield, Mich.) with a mobile phase of 25 mM KH2PO4, pH 2.5 and 10% (v/v) methanol.
# [4] = system: thermophilic clostridium; settings: cited from earlier work
# [5] = system: strain P11; test: Metabolic inhibitor studies (FA/TFA) in CO medium; assay type: cell-based, Clostridium ragsdalei; settings: for Ethanol production compared to the control strains: P11 in the presence of the inhibitor, identical conditions
# Method: as §1, §2
# Metabolic Inhibitor Studies. Filter sterilized anaerobic stock solutions of fluoroacetate (FA) and trifluoroacetate (TFA) (Sigma Chemical Co.) were prepared to final concentrations of 4.5M. Before preparation, the FA and TFA powders were allowed to sit overnight in small beakers in the anaerobic chamber to allow any trapped oxygen to diffuse from the powder. […] The inhibitors were usually added to the medium one day prior to inoculating with P11 to ensure anaerobicity was maintained. All additions were made anaerobically by syringe. During this study growth was measured periodically by spectroscopy. Toward the end of resting cell phase, liquid samples (1 mL) were taken and stored frozen (−20° C.) until analyzed by GC and HPLC.
# [6] = system: Clostridium ljungdahlii strain PETC; test: Growth of reference strain PETC on substrates as sole carbon and energy sources; assay type: cell-based; settings: strain PETC; growth on substrate as sole carbon and energy source; final OD600
# Excerpt: Organisms. Clostridium ljundahlii strain PETC was obtained from a fructose stock culture maintained by Dr. Ralph S. Tanner and was used as the reference control strain. Strain P11 was obtained from an anaerobic enrichment inoculated with fresh water sediment from the Duck Pond at the University of Oklahoma by a procedure described previously (Bryant, 1972) under an atmosphere of CO:N2:CO2 (75:15:10) and an initial pH of 6.0. The carbon monoxide oxidizing clostridium described within was named Clostridium ragsdalei. This bacterium was designated strain P11 and deposited with the American Type Culture Collection as strain ATCC BAA-622.
# as §3, §4
# [7] = iron increased tenfold compared to standard medium
compound,measurement,setting,value
"[Cu] [Cu, copper]",Acetate production on elimination of the metal,[1],decreased acetate production
same,CO metabolism on elimination of the metal,[1],limited CO metabolism
same,CO metabolism at increased level of the metal,[1],stimulated CO metabolism
CCO [Ethanol],MIC,"[2]; Clostridium ragsdalei, P11, read-out: Minimum inhibitory concentration",35 mg/mL
same,Growth at the 50 g/L ethanol concentration,[2]; adapted semi-continuous batch culture,≤ 0.55 OD units
same,Growth relative to the unamended control without ethanol,"[2]; all ethanol concentrations, 15-35 g/L",Growth was retarded
same,Ethanol concentration at which the adapted culture functions fully,[2]; culture adapted to ethanol,50 grams per liter
same,Highest ethanol concentration at which the adapted culture was established,"[2]; semi-continuous batch culture, stepwise adaptation from 20 g/L",50 g/L
same,Ethanol concentration in which P11 remains viable and will grow,[2]; statement in the description,at least 60 g/L
same,Ethanol concentration initially tolerated,"[2]; strain P11, not adapted",up to 30 g/L
same,Ethanol concentration that inhibited strain P11,[2]; upon initial isolation,30 grams per liter
same,Growth with substrate,"[3]; Clostridium ragsdalei, malate and formate examined at pH 5.0-6.5",chemoorganotrophic growth was observed
"O=C(O)CF [FA, fluoroacetate]",Concentration shown to inhibit growth,[4],50 mM
same,Decrease of acetate production,[5]; 30 mM FA and above,nearly ninety percent
same,Decrease of ethanol production,[5]; 30 mM FA and above,fifty
same,Decrease of growth yield,[5]; 30 mM FA and above,forty percent
same,Increase of ethanol to acetate ratio,[5]; 30 mM FA and above,eighty percent
same,Growth yield (OD) or end products relative to the P11 control,[5]; COM containing 20 mM FA,no significant differences
same,MIC,"[5]; Clostridium ragsdalei, strain P11 in COM, CO substrate, read-out: MIC (minimum inhibitory concentration)",100 mM
same,Ethanol production compared to the control strains,[5],increase of ethanol production
same,Acetate,[5]; P11 with 15 mM FA,48.72 mM
same,Ethanol,[5]; P11 with 15 mM FA,39.62 mM
same,Final OD 600,[5]; P11 with 15 mM FA,0.741
"[Mo] [Mo, molybdenum]",Acetate production on elimination of the metal,[1],increased acetate production
same,CO metabolism on elimination of the metal,[1],CO metabolism increased slightly
same,CO metabolism at increased level of the metal,[1],stimulated CO metabolism
"[Ni] [Ni, nickel]",CO metabolism on elimination of the metal,[1],limited CO metabolism
same,Increase in solvent to acid ratio on elimination of the metal,[1],~400%
same,CO metabolism at increased level of the metal,[1],stimulated CO metabolism
"O=C(O)C(F)(F)F [TFA, trifluoroacetate]",Growth yield,[5]; COM containing 30 mM TFA,remained unchanged
same,Increase in acetate produced,[5]; COM containing 30 mM TFA,52%
same,Increase in ethanol produced,[5]; COM containing 30 mM TFA,126%
same,Increase of solvent to acid ratio,[5]; COM containing 30 mM TFA,50%
same,Ethanol production compared to the control strains,[5],increase of ethanol production
same,Acetate,[5]; P11 with 60 mM TFA,34.58 mM
same,Ethanol,[5]; P11 with 60 mM TFA,45.60 mM
same,Final OD 600,[5]; P11 with 60 mM TFA,0.641
same,MIC (minimum inhibitory concentration),"[5]; strain P11 in COM, CO substrate",150 mM
Glycogen,"Substrate utilization, C. ljungdahlii",[6],−
same,"Substrate utilization, C. ragsdalei",[3],−
Inulin,"Substrate utilization, C. ljungdahlii",[6],−
same,"Substrate utilization, C. ragsdalei",[3],−
Iron [Fe],CO metabolism on elimination of the metal,[1],limited CO metabolism
same,Increase in solvent to acid ratio on elimination of the metal,[1],~300%
same,CO metabolism at increased level of the metal,[1],stimulated CO metabolism
same,Concentration of ethanol produced,[1]; [7],doubles the concentration of ethanol produced
same,Production of acetic acid,[1]; [7],decreasing the production of acetic acid
Pectin,"Substrate utilization, C. ljungdahlii",[6],−
same,"Substrate utilization, C. ragsdalei",[3],−
Starch,"Substrate utilization, C. ljungdahlii",[6],−
same,"Substrate utilization, C. ragsdalei",[3],−
Trimethoxybenzoic acid,"Substrate utilization, C. ljungdahlii",[6],−
same,"Substrate utilization, C. ragsdalei",[3],−
